Measurements reported in patent US20090062403A1, “Compositions and Methods for Treatment of Disorders of Protein Aggregation” (priority 2004, published 2009).

How the values were obtained:
Aβ oligomers = settings: positive control, previously shown; cited from earlier work
Aβ = target: T1, Aβ (Homo sapiens, UniProt P05067); settings: reference [16]; cited from earlier work
T1 construct: neurotoxic oligomeric/protofibrillar aggregates of amyloid β-peptide (Aβ)

TgCRND8 mice = test: Pilot in vivo studies; design: species or system mouse; settings: data not shown
Description: The TgCRND8 mice and non-transgenic littermates were assigned to sex- and age-matched cohorts that were then used to test the effectiveness of the cyclohexanehexol stereoisomers as a therapeutic (with treatment delayed until five months of age and continued for one month until six months of age). […] The endpoints were cognitive function, brain Aβ levels, and neuropathology. […] Over the course of these experiments, observers were unaware of genotype or treatment group.

T1 sequence (P05067 672-713 limits assumed): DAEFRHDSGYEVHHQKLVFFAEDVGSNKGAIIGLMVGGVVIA

Structure (SMILES)	production of oligomers when added pre-cond (Aβ oligomers)	effectiveness in prior in vitro studies (Aβ)	benefit in pilot in vivo studies (TgCRND8 mice)
Oc1cccc(Nc2ccc(Nc3cccc(O)c3)nn2)c1 [RS0406]	reduces the production of oligomers	–	–
O[C@H]1[C@H](O)[C@@H](O)[C@H](O)[C@@H](O)[C@H]1O [myo-cyclohexanehexol, 1,2,3,5/4,6-(myo-)cyclohexanehexol]	–	only weakly effective	no significant benefit
